Measurements taken from publication PMC2628638, “Catalytic inhibition of topoisomerase II by a novel rationally designed ATP-competitive purine analogue” (BMC Chemical Biology, 2009).

Biological target: topoisomerase II alpha (Homo sapiens, UniProt P11388)
Test: Affinity precipitation with biotinylated purine analogue 2 from HL-60 nuclear extracts
Type: binding
Set-up: endogenous in cells; host or cells: HL-60 nuclear extract
Settings: 1 μM biotinylated analogue 2; competitor in excess (10 μM), QAP 1 also at equimolar concentration
Description: Topoisomerase II α and β were affinity precipitated with biotinylated inhibitor as follows. Exponentially growing HL-60 cells were collected on ice and incubated with hypotonic buffer (10 mM HEPES pH 7.5, 1.5 mM MgCl2, 10 mM KCl, 0.5 mM DTT, 0.5 mM PMSF, 1× protease inhibitor cocktail (Complete Mini, Roche Diagnostics GmbH)) for 15 minutes, then 0.6% v/v NP-40 was added and cells were disrupted using a Dounce homogenizer. Lysates were transferred to 1.5 ml Protein LoBind Eppendorf tubes and nuclei were collected after centrifugation at 8000 rpm for 10 minutes and washed twice with hypotonic buffer. To extract and release chromatin associated topoisomerase II nuclei were incubated for 30 minutes in DNAse buffer (20 mM Tris HCl pH 7.5, 5 mM MgCl2, 1 mM CaCl2, 25 mM NaCl, 0.5 mM EDTA, 1% NP-40, 1 mM DTT, 1 × protease inhibitor cocktail, 0.1 mM PMSF) containing 40 U DNAse I (Roche Diagnostics GmbH) followed by addition of twice concentrated nuclear extraction buffer (20 mM HEPES pH 7.5, 3 mM MgCl2, 20 mM KCl, 50 mM β-glycerophosphate, 840 mM NaCl, 1 mM EDTA, 50 mM PNPP, 1 mM DTT, 1 mM PMSF) and rotation for 1 h in the coldroom. The soluble fraction was obtained following centrifugation at 13000 rpm for 15 minutes. 25 μg nuclear extract were used for the affinity precipitation. The salt concentration was adjusted to 150 mM with nuclear extraction buffer (without NaCl) and the sample volume was toped off to 200 μl with precipitation buffer (50 mM HEPES pH 7.4, 150 mM NaCl, 25 mM β-glycerophosphate, 25 mM NaF, 5 mM EGTA, 1 mM EDTA, 15 mM PPI, 1 mM PMSF). Compounds were preincubated for 30 minutes prior addition of biotinylated purine analogue 2 for 2 h. Streptavidin agarose beads (Novagen, 69203) were washed twice with PBS, blocked for 30 minutes with PBS containing 1% BSA, washed twice with PBS and finally with precipitation buffer. 40 μl equilibrated streptavidin agarose beads were added to the sample and incubation was continued for 1 h. Beads were pelleted by centrifugation at 7000 rpm for 5 minutes and washed thrice with precipitation buffer. During the last wash the beads were transferred to a new tube and the bound fraction was released by boiling for 5 minutes in Laemmli sample buffer. Topoisomerase II α and β were detected by Western blot as described below.

topoisomerase II alpha, sequence (P11388 whole entry): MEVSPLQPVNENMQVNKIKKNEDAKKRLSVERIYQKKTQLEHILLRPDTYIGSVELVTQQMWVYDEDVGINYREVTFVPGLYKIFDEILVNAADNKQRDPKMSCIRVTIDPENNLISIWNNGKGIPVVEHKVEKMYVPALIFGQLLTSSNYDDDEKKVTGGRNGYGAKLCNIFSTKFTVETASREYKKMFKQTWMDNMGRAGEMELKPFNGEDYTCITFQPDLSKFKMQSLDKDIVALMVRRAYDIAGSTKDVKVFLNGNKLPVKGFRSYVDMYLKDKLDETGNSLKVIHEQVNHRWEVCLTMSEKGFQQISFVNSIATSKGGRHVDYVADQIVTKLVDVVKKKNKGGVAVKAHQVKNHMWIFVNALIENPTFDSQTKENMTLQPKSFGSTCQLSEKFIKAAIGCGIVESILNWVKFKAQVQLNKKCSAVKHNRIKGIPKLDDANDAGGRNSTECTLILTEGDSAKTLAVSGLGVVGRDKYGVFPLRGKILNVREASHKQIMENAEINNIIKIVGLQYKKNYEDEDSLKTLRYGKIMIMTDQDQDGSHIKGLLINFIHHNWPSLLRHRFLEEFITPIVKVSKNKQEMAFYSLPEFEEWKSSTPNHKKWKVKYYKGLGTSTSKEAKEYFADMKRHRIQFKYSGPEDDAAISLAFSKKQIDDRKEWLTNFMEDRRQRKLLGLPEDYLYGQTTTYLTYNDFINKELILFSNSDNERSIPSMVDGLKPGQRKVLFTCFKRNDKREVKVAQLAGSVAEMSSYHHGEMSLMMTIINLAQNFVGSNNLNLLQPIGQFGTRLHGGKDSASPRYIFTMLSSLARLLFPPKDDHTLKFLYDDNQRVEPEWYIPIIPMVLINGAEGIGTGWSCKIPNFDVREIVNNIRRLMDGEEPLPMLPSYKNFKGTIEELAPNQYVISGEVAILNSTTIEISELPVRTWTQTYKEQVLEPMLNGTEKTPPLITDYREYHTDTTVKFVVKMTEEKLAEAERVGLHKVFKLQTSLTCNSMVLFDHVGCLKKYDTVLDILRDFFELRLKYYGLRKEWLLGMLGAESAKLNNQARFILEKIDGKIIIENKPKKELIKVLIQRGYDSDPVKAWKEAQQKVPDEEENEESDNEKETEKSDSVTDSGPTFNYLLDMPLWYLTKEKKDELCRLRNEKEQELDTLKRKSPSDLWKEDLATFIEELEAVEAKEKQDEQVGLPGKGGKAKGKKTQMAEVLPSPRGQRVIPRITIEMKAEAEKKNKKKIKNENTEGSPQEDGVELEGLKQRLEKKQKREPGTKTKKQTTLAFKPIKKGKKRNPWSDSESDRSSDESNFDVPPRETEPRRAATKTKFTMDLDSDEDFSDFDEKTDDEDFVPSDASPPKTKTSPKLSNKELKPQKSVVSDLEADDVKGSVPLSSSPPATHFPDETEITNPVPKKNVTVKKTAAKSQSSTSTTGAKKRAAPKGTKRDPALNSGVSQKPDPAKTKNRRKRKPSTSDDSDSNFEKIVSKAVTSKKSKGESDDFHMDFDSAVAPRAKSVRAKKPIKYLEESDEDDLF

- competition of the interaction of biotinylated purine analogue 2 with topoisomerase II alpha: abolished
Structure (SMILES): CCc1nc2nc(Nc3ccc4nc(OCCN5CCOCC5)ccc4c3)nc(NC(C)(C)C)c2[nH]1 [QAP 1]
